{"source": "patent US20050009840A1", "about": "(SUGEN, INC., priority 2003, published 2005)", "note": "“And” between values parts separate entries of the source, which are not always exact repeats. Equal values may be shown once.", "data": [{"biological_target": "T1, Met kinase domain (GST fusion protein) (Homo sapiens, UniProt P08581)", "T1 construct": "Purified GST fusion protein containing the Met kinase domain", "T1 sequence (P08581 1078-1345 limits assumed)": "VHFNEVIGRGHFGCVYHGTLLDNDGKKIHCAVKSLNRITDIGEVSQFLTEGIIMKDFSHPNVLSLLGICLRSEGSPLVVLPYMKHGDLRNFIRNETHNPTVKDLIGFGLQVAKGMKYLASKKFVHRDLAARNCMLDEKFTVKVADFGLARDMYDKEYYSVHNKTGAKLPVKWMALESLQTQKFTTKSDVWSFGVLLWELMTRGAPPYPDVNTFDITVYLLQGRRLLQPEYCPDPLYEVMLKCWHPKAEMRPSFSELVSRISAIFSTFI", "assay": "Met transphosphorylation assay (ELISA, poly(glu-tyr) substrate);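 note: Cell-free ELISA with plate-bound poly(Glu:Tyr 4:1) phosphorylated by GST-fused Met kinase domain plus ATP and Mn2+, phosphotyrosine detected by anti-phosphotyrosine antibody with HRP and ABTS read-out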", "type": "biochemical", "conditions": "at 20 μM; read-out: Met inhibition (printed in the Met IC50 column)", "units": {"inhibition at 20 µM": "%"}, "values": [{"smiles": "Nc1ncc(Br)cc1OCc1c(F)cccc1F", "note": "[I(c)]", "inhibition at 20 µM": 40}]}, {"biological_target": "T1, Met kinase domain (GST fusion protein)", "assay": "Met transphosphorylation assay (ELISA, poly(glu-tyr) substrate)", "type": "biochemical", "conditions": "plain numbers in column Met IC50 (μM) of Table 2; read-out: Met IC50", "units": {"IC50": "µM"}, "values": [{"smiles": "CC(Oc1cc(-c2ccnc(C(=O)N3CCN(C)CC3)c2)cnc1N)c1c(Cl)ccc(F)c1Cl", "note": "(stereo not drawn) [Example I-515, {6-Amino-5-[1-(2,6-dichloro-3-fluoro-phenyl)-ethoxy]-[3,4′]bipyridinyl-2′-yl}-(4-methyl-piperazin-1-yl)-methanone]", "IC50": 0.0387}, {"smiles": "CC(Oc1cc(-c2ccc(N)nc2)cnc1N)c1c(F)ccc(F)c1Cl", "note": "(stereo not drawn) [Example I-516, 5-[1-(2-Chloro-3,6-difluoro-phenyl)-ethoxy]-[3,3′]bipyridinyl-6,6′-diamine]", "IC50": 0.0393}, {"smiles": "CC(Oc1cc(-c2cc(C(=O)N3CCN(C)CC3)ccn2)cnc1N)c1c(F)ccc(F)c1Cl", "note": "(stereo not drawn) [Example I-518, {6′-Amino-5′-[1-(2-chloro-3,6-difluoro-phenyl)-ethoxy]-[2,3′]bipyridinyl-4-yl}-(4-methyl-piperazin-1-yl)-methanone]", "IC50": 0.209}, {"smiles": "CC(Oc1cc(-c2cccc(C(=O)N3CCN(C)CC3)n2)cnc1N)c1c(F)ccc(F)c1Cl", "note": "(stereo not drawn) [Example I-519, {6′-Amino-5′-[1-(2-chloro-3,6-difluoro-phenyl)-ethoxy]-[2,3′]bipyridinyl-6-yl}-(4-methyl-piperazin-1-yl)-methanone]", "IC50": 0.466}, {"smiles": "CC(Oc1cc(-c2cncc(C(=O)N3CCN(C)CC3)c2)cnc1N)c1c(F)ccc(F)c1Cl", "note": "(stereo not drawn) [Example I-520, {6′-Amino-5′-[1-(2-chloro-3,6-difluoro-phenyl)-ethoxy]-[3,3′]bipyridinyl-5-yl}-(4-methyl-piperazin-1-yl)-methanone]", "IC50": 0.134}, {"smiles": "CC(Oc1cc(-c2ccc(C(=O)N3CCN(C)CC3)nc2)cnc1N)c1c(F)ccc(F)c1Cl", "note": "(stereo not drawn) [Example I-521, {6′-Amino-5′-[1-(2-chloro-3,6-difluoro-phenyl)-ethoxy]-[3,3′]bipyridinyl-6-yl}-(4-methyl-piperazin-1-yl)-methanone]", "IC50": 0.0716}, {"smiles": "CC(Oc1cc(-c2ccnc(C(=O)N3CCN(C)CC3)c2)cnc1N)c1c(F)ccc(F)c1Cl", "note": "(stereo not drawn) [Example I-522]", "IC50": 0.0626}, {"smiles": "CC(Oc1cc(-c2ccccn2)cnc1N)c1c(Cl)ccc(F)c1Cl", "note": "(stereo not drawn) [Example I-523, 5′-[1-(2,6-Dichloro-3-fluoro-phenyl)-ethoxy]-[2,3′]bipyridinyl-6′-ylamine]", "IC50": 0.0677}, {"smiles": "CC(Oc1cc(-c2ccccn2)cnc1N)c1c(F)ccc(F)c1Cl", "note": "(stereo not drawn) [Example I-524, 5′-[1-(2-Chloro-3,6-difluoro-phenyl)-ethoxy]-[2,3′]bipyridinyl-6′-ylamine]", "IC50": 0.612}, {"smiles": "CC(Oc1cc(-c2cccnc2)cnc1N)c1c(F)ccc(F)c1Cl", "note": "(stereo not drawn) [Example I-525, 5-[1-(2-Chloro-3,6-difluoro-phenyl)-ethoxy]-[3,3′]bipyridinyl-6-ylamine]", "IC50": 0.0777}, {"smiles": "CC(Oc1cc(-c2cncnc2)cnc1N)c1c(F)ccc(F)c1Cl", "note": "(stereo not drawn) [Example I-526, 3-[1-(2-Chloro-3,6-difluoro-phenyl)-ethoxy]-5-pyrimidin-5-yl-pyridin-2-ylamine]", "IC50": 0.552}, {"smiles": "CC(Oc1cc(-c2ccc(C(=O)N3CCN(C)CC3)cn2)cnc1N)c1c(Cl)ccc(F)c1Cl", "note": "(stereo not drawn) [Example I-527, {6′-Amino-5′-[1-(2,6-dichloro-3-fluoro-phenyl)-ethoxy]-[2,3′]bipyridinyl-5-yl}(4-methyl-piperazin-1-yl)-methanone]", "IC50": 0.0385}, {"smiles": "CC(Oc1cc(-c2ccncc2)cnc1N)c1c(F)ccc(F)c1Cl", "note": "(stereo not drawn) [Example I-528, 5-[1-(2-Chloro-3,6-difluoro-phenyl)-ethoxy]-[3,4′]bipyridinyl-6-ylamine]", "IC50": 0.0659}, {"smiles": "CC(Oc1cc(OCc2ccccc2)cnc1N)c1c(F)ccc(F)c1Cl", "note": "(stereo not drawn) [Example I-529, 5-Benzyloxy-3-[1-(2-chloro-3,6-difluoro-phenyl)-ethoxy]-pyridin-2-ylamine]", "IC50": 2.58}, {"smiles": "CCC(CC)COc1cnc(N)c(OC(C)c2c(F)ccc(F)c2Cl)c1", "note": "(stereo not drawn) [Example I-530, 3-[1-(2-Chloro-3,6-difluoro-phenyl)-ethoxy]-5-(2-ethyl-butoxy)-pyridin-2-ylamine]", "IC50": 4.08}, {"smiles": "CC(C)CCOc1cnc(N)c(OC(C)c2c(F)ccc(F)c2Cl)c1", "note": "(stereo not drawn) [Example I-531, 3-[1-(2-Chloro-3,6-difluoro-phenyl)-ethoxy]-5-(3-methyl-butoxy)-pyridin-2-ylamine]", "IC50": 2.4}, {"smiles": "CCCCOc1cnc(N)c(OC(C)c2c(F)ccc(F)c2Cl)c1", "note": "(stereo not drawn) [Example I-532, 3-[1-(2-Chloro-3,6-difluoro-phenyl)-ethoxy]-5-butoxy-pyridin-2-ylamine]", "IC50": 1.94}, {"smiles": "CCCOc1cnc(N)c(OC(C)c2c(F)ccc(F)c2Cl)c1", "note": "(stereo not drawn) [Example I-533, 3-[1-(2-Chloro-3,6-difluoro-phenyl)-ethoxy]-5-propoxy-pyridin-2-ylamine]", "IC50": 0.672}, {"smiles": "CC(Oc1cc(OCC2CCCCC2)cnc1N)c1c(F)ccc(F)c1Cl", "note": "(stereo not drawn) [Example I-534, 3-[1-(2-Chloro-3,6-difluoro-phenyl)-ethoxy]-5-cyclohexylmethoxy-pyridin-2-ylamine]", "IC50": 5.97}, {"smiles": "CC(Oc1cc(O)cnc1N)c1c(F)ccc(F)c1Cl", "note": "(stereo not drawn) [Example I-535, 6-Amino-5-[1-(2-chloro-3,6-difluoro-phenyl)-ethoxy]-pyridin-3-ol]", "IC50": 0.54}, {"smiles": "CC(Oc1cc(OCCC2CCCCC2)cnc1N)c1c(F)ccc(F)c1Cl", "note": "(stereo not drawn) [Example I-536, 3-[1-(2-Chloro-3,6-diftuoro-phenyl)-ethoxy]-5-(2-cyclohexyl-ethoxy)-pyridin-2-ylamine]", "IC50": 7.5}, {"smiles": "CC(C)COc1cnc(N)c(OC(C)c2c(F)ccc(F)c2Cl)c1", "note": "(stereo not drawn) [Example I-537, 3-[1-(2-Chloro-3,6-difluoro-phenyl)-ethoxy]-5-isobutoxy-pyridin-2-ylamine]", "IC50": 1.2}, {"smiles": "CC(Oc1cc(OCCc2ccccc2)cnc1N)c1c(F)ccc(F)c1Cl", "note": "(stereo not drawn) [Example I-538, 3-[1-(2-Chloro-3,6-difluoro-phenyl)-ethoxy]-5-phenethyloxy-pyridin-2-ylamine]", "IC50": 2.8}, {"smiles": "CC(Oc1cc(OCc2ccccn2)cnc1N)c1c(F)ccc(F)c1Cl", "note": "(stereo not drawn) [Example I-539, 3-[1-(2-Chloro-3,6-difluoro-phenyl)-ethoxy]-5-(pyridin-2-ylmethoxy)-pyridin-2-ylamine]", "IC50": 3.2}, {"smiles": "CC(Oc1cc(OCc2ccncc2)cnc1N)c1c(F)ccc(F)c1Cl", "note": "(stereo not drawn) [Example I-540, 3-[1-(2-Chloro-3,8-difluoro-phenyl)-ethoxy]-5-(pyridin-4-ylmethoxy)-pyridin-2-ylamine]", "IC50": 0.8}, {"smiles": "CC(Oc1cc(-c2ccc(C(=O)N3CCN(C)CC3)cc2)cnc1N)c1c(Cl)ccc(F)c1Cl", "note": "(stereo not drawn) [Example I-541, (4-{6-Amino-5-[1-(2,6-dichloro-3-fluoro-phenyl)-ethoxy]-pyridin-3-yl}-phenyl)-(4-methyl-piperazin-1-yl)-methanone]", "IC50": 0.079}]}, {"biological_target": "T1, Met kinase domain (GST fusion protein)", "assay": "Met transphosphorylation assay (ELISA, poly(glu-tyr) substrate)", "type": "biochemical", "conditions": "read-out: Met IC50", "values": [{"smiles": "Nc1ncc(Br)cc1OCc1c(Cl)cccc1Cl", "note": "[I(a), 5-Bromo-3-(2,6-dichloro-benzyloxy)-pyridin-2-ylamine]", "IC50": "5.3 µM"}, {"smiles": "Nc1ncc(Br)cc1OCc1ccccc1", "note": "[I(b), 3-Benzyloxy-5-bromo-pyridin-2-ylamine]", "IC50": "> 20 µM"}, {"smiles": "Nc1ncc(Br)cc1OCc1ccccc1Br", "note": "[I(d), 5-Bromo-3-(2-bromo-benzyloxy)-pyridin-2-ylamine]", "IC50": "> 20 µM"}, {"smiles": "Nc1ncc(Br)cc1OCc1c(F)cccc1Cl", "note": "[I(e), 5-Bromo-3-(2-chloro-6-fluoro-benzyloxy)-pyridin-2-ylamine]", "IC50": "20 µM"}, {"smiles": "Nc1ncc(Br)cc1OCc1c(F)ccc(F)c1Cl", "note": "[I(l), 5-Bromo-3-(2-chloro-3.6-difluoro-benzyloxy)-pyridin-2-ylamine]", "IC50": "5.3 µM"}, {"smiles": "Nc1ncc(Br)nc1OCc1c(Cl)cccc1Cl", "note": "[II(a), 5-Bromo-3-(2,6-dichloro-benzyloxy)-pyrazin-2-ylamine]", "IC50": "> 20 µM"}, {"smiles": "Nc1ncc(Br)nc1OCc1c(F)ccc(F)c1Cl", "note": "[II(b), 5-Bromo-3-(2-chloro-3,6-difluoro-benzyloxy)-pyrazin-2-ylamine]", "IC50": "> 20 µM"}, {"smiles": "CC(Oc1nc(Br)cnc1N)c1c(F)ccc(F)c1Cl", "note": "(stereo not drawn) [II(c), 5-Bromo-3-[1-(2-chloro-3,6-difluoro-phenyl)-ethoxy]-pyrazin-2-ylamine]", "IC50": "1.81 µM and 2.67 µM"}, {"smiles": "CC(C)C(Oc1nc(Br)cnc1N)c1c(F)ccc(F)c1Cl", "note": "(stereo not drawn) [II(d), 5-Bromo-3-[1-(2-chloro-3,6-difluoro-phenyl)-2-methyl-propoxy]-pyrazin-2-ylamine]", "IC50": "18.1 µM"}, {"smiles": "CC(Oc1nc(Br)cnc1N)c1c(Cl)ccc(F)c1Cl", "note": "(stereo not drawn) [II(e), 5-Bromo-3-[1-(2,6-dichloro-3-fluoro-phenyl)-ethoxy]-pyrazin-2-ylamine]", "IC50": "0.24 µM and 0.66 µM and 1.3 µM"}, {"smiles": "Nc1ncc(-c2ccc(O)cc2)nc1OCc1c(Cl)cccc1Cl", "note": "[II-1, 4-[5-Amino-6-(2,6-dichloro-benzyloxy)-pyrazin-2-yl]-phenol]", "IC50": "1.35 µM"}, {"smiles": "Nc1ncc(-c2ccc(N3CCCS3(=O)=O)cc2)nc1OCc1c(Cl)cccc1Cl", "note": "[II-2, 3-(2,6-Dichloro-benzyloxy)-5-[4-(1,1-dioxo-1λ^6-isothiazolidin-2-yl)-phenyl]-pyrazin-2-ylamine]", "IC50": "0.825 µM"}, {"smiles": "Nc1ncc(-c2cccc(OCCN3CCOCC3)c2)nc1OCc1c(Cl)cccc1Cl", "note": "[II-3, 3-(2,6-Dichloro-benzyloxy)-5-[3-(2-morpholin-4-yl-ethoxy)-phenyl]-pyrazin-2-ylamine]", "IC50": "0.74 µM"}, {"smiles": "Nc1ncc(-c2ccc(OCCN3CCOCC3)cc2)nc1OCc1c(Cl)cccc1Cl", "note": "[II-4, 3-(2,6-Dichloro-benzyloxy)-5-[4-(2-morpholin-4-yl-ethoxy)-phenyl]-pyrazin-2-ylamine]", "IC50": "1.25 µM"}, {"smiles": "Nc1ccc(-c2cnc(N)c(OCc3c(Cl)cccc3Cl)n2)cc1", "note": "[II-5, 5-(4-Amino-phenyl)-3-(2,6-dichloro-benzyloxy)-pyrazin-2-ylamine]", "IC50": "0.94 µM"}, {"smiles": "Nc1ncc(-c2ccc(C(=O)O)cc2)nc1OCc1c(Cl)cccc1Cl", "note": "[II-6, 4-[5-amino-6-(2,6-dichloro-benzyloxy)-pyrazin-2-yl]-benzoic acid]", "IC50": "1.75 µM"}, {"smiles": "Nc1ncc(-c2ccc(C(=O)N3CCC[C@@H]3CN3CCCC3)cc2)nc1OCc1c(Cl)cccc1Cl", "note": "[II-7, {4-[5-Amino-6-(2,6-dichloro-benzyloxy)-pyrazin-2-yl]-phenyl)[(2R)-2-pyrrolidin-1-ylmethyl-pyrrolidin-1-yl]-methanone]", "IC50": "0.24 µM"}, {"smiles": "Nc1ncc(-c2ccc(C(=O)N3CCC(N4CCCC4)CC3)cc2)nc1OCc1c(Cl)cccc1Cl", "note": "[II-8]", "IC50": "0.56 µM"}]}]}
